Test results from ChEMBL document CHEMBL1201862, “PubChem BioAssay data set” (2004).
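In this assay, cells in 96-well plates receive the compound at five concentrations for 48 hours. Endpoints are linearly interpolated between the surrounding concentrations. At the GI50, growth is halved.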 Activity calls are given as the source filed them. Cut-off read from the data, not from the text of the source: active = GI50 up to about 1.1 µM and inactive = higher.

Experiments:
Assay in all cases: growth of human tumour cells (NCI), 48 h
786-0 = system: 786-0
SK-MEL-5 = system: SK-MEL-5
U-251 = system: U-251
COLO 205 = system: COLO 205
NCI-H23 = system: NCI-H23
HCT-116 = system: HCT-116
NCI-H522 = system: NCI-H522
PC-3 = system: PC-3
NCI/ADR-RES = system: NCI/ADR-RES
MDA-N = system: MDA-N
LOX IMVI = system: LOX IMVI
SNB-19 = system: SNB-19
ACHN = system: ACHN
SF-295 = system: SF-295
T47D = system: T47D
NCI-H460 = system: NCI-H460
BT-549 = system: BT-549
SN12C = system: SN12C
OVCAR-3 = system: OVCAR-3

Row | SMILES | GI50 (786-0) | GI50 (SK-MEL-5) | GI50 (U-251) | GI50 (COLO 205) | GI50 (NCI-H23) | GI50 (HCT-116) | GI50 (NCI-H522) | GI50 (PC-3) | GI50 (NCI/ADR-RES) | GI50 (MDA-N) | GI50 (LOX IMVI) | GI50 (SNB-19) | GI50 (ACHN) | GI50 (SF-295) | GI50 (T47D) | GI50 (NCI-H460) | GI50 (BT-549) | GI50 (SN12C) | GI50 (OVCAR-3)
1 | CCCCCCCCCCCC(=O)Oc1c(Cl)cc(Cl)c(OC(=O)C(=O)Oc2c(Cl)cc(Cl)c(OC(=O)CCCCCCCCCCC)c2Cl)c1Cl | > 100 µM (inactive) | > 100 µM (inactive) | > 100 µM (inactive) | > 100 µM (inactive) | > 100 µM (inactive) | > 100 µM (inactive) | > 100 µM (inactive) | > 100 µM (inactive) | > 100 µM (inactive) | > 100 µM (inactive) | > 100 µM (inactive) | > 100 µM (inactive) | > 100 µM (inactive) | > 100 µM (inactive) | > 100 µM (inactive) | > 100 µM (inactive) | > 100 µM (inactive) | > 100 µM (inactive) | –
2 | CCCC(=O)Nc1cc(/C=C/C(=O)N2CC(CCl)c3c2cc(O)c2[nH]cc(C)c32)n(C)c1 (configuration not stated) | < 2.5e-05 µM (active) | < 2.5e-05 µM (active) | < 2.5e-05 µM (active) | < 2.5e-05 µM (active) | < 2.5e-05 µM (active) | < 2.5e-05 µM (active) | < 2.5e-05 µM (active) | < 2.5e-05 µM (active) | 9.64e-05 µM (active) | < 2.5e-05 µM (active) | < 2.5e-05 µM (active) | < 2.5e-05 µM (active) | < 2.5e-05 µM (active) | < 2.5e-05 µM (active) | < 2.5e-05 µM (active) | < 2.5e-05 µM (active) | < 2.5e-05 µM (active) | < 2.5e-05 µM (active) | < 2.5e-05 µM (active)
3 | C=CCN1C[C@H](C)N([C@H](c2ccc(C(=O)N(CC)CCO)cc2)c2cccc(OC)c2)C[C@H]1C | > 100 µM (inactive) | 54.7 µM (inactive) | 56 µM (inactive) | 43.5 µM (inactive) | > 100 µM (inactive) | > 100 µM (inactive) | > 100 µM (inactive) | 38.6 µM (inactive) | > 100 µM (inactive) | > 100 µM (inactive) | – | > 100 µM (inactive) | > 100 µM (inactive) | > 100 µM (inactive) | 38.5 µM (inactive) | – | > 100 µM (inactive) | > 100 µM (inactive) | 12.3 µM (inactive)
4 | CCN(CC)CCCNc1c2cc(OC)ccc2nc2cccc([N+](=O)[O-])c12 | 0.071 µM (active) | 0.0935 µM (active) | 0.082 µM (active) | 0.0238 µM (active) | 0.0746 µM (active) | 0.0327 µM (active) | 0.00658 µM (active) | 0.0543 µM (active) | 0.274 µM (active) | 0.129 µM (active) | 0.024 µM (active) | 0.286 µM (active) | 0.0407 µM (active) | 0.147 µM (active) | 0.151 µM (active) | 0.0184 µM (active) | 0.2 µM (active) | 0.11 µM (active) | 0.034 µM (active)
5 | O=C(O)CN1CCN2CCOCCOCCN(CC1)CCN(CC(=O)O)CC2 | > 100 µM (inactive) | > 100 µM (inactive) | > 100 µM (inactive) | > 100 µM (inactive) | – | > 100 µM (inactive) | > 100 µM (inactive) | > 100 µM (inactive) | > 100 µM (inactive) | > 100 µM (inactive) | > 100 µM (inactive) | > 100 µM (inactive) | > 100 µM (inactive) | > 100 µM (inactive) | > 100 µM (inactive) | > 100 µM (inactive) | > 100 µM (inactive) | > 100 µM (inactive) | > 100 µM (inactive)
6 | CC(=O)C1COC(O)C1C (configuration not stated) | 21.3 µM (inactive) | 16 µM (inactive) | 23.4 µM (inactive) | 17 µM (inactive) | 16.1 µM (inactive) | 18.4 µM (inactive) | – | 20 µM (inactive) | 18.5 µM (inactive) | 21.3 µM (inactive) | 16.4 µM (inactive) | 31.1 µM (inactive) | 23.9 µM (inactive) | 26.1 µM (inactive) | 35.2 µM (inactive) | 18.3 µM (inactive) | 30 µM (inactive) | 20.7 µM (inactive) | 19 µM (inactive)
7 | CCOC(=O)C1=NN(c2ccc(C)cc2)C2(c3ccccc3)C=C(c3ccccc3)N(C)CCN12 (configuration not stated) | > 100 µM (inactive) | > 100 µM (inactive) | > 100 µM (inactive) | > 100 µM (inactive) | > 100 µM (inactive) | > 100 µM (inactive) | > 100 µM (inactive) | > 100 µM (inactive) | > 100 µM (inactive) | > 100 µM (inactive) | > 100 µM (inactive) | > 100 µM (inactive) | > 100 µM (inactive) | > 100 µM (inactive) | > 100 µM (inactive) | – | > 100 µM (inactive) | > 100 µM (inactive) | > 100 µM (inactive)
